Results published in ChEMBL document CHEMBL5154783, “Design, synthesis, and evaluation of novel 3-thiophene derivatives as potent fungistatic and fungicidal reagents based on a conformational restriction strategy” (Eur J Med Chem, 2022).
≈ marks a conversion by molar mass, not a printed value. Calls of active or inactive are those of the source. The rule behind the calls is not given here.

Key:
[1] = Cytotoxicity against human THLE-2 cells assessed as reduction in cell viability incubated for 96 hrs by MTT assay; format: toxicity, cell-based
Candida albicans [2] = experiment: Antifungal activity against Candida albicans ATCC SC5314 assessed as fungal growth inhibition by CLSI based serial microbroth dilution method; format: functional
Candida albicans [3] = experiment: Antifungal activity against Candida albicans CPCC400616 assessed as fungal growth inhibition by CLSI based serial microbroth dilution method; format: functional
Candida tropicalis = experiment: Antifungal activity against Candida tropicalis CGMCC 2.3739 assessed as fungal growth inhibition by CLSI based serial microbroth dilution method; format: functional
Cryptococcus neoformans = experiment: Antifungal activity against Cryptococcus neoformans CGMCC 2.3161 assessed as fungal growth inhibition by CLSI based serial microbroth dilution method; format: functional
Candida parapsilosis = experiment: Antifungal activity against Candida parapsilosis GIM 2.190 assessed as fungal growth inhibition by CLSI based serial microbroth dilution method; format: functional; conditions: Lodderomyces parapsilosis
Nakaseomyces glabratus = experiment: Antifungal activity against Candida glabrata clinical isolate assessed as fungal growth inhibition by CLSI based serial microbroth dilution method; format: functional
Pichia kudriavzevii = experiment: Antifungal activity against Candida krusei GIM 2.1 assessed as fungal growth inhibition by CLSI based serial microbroth dilution method; format: functional
Aspergillus fumigatus = experiment: Antifungal activity against Aspergillus fumigatus CGMCC 3.7795 assessed as fungal growth inhibition by CLSI based serial microbroth dilution method; format: functional
Candida albicans [4] = experiment: Antifungal activity against FLC and ITC-resistant Candida albicans 17 assessed as fungal growth inhibition by CLSI based serial microbroth dilution method; format: functional
Candida albicans [5] = experiment: Antifungal activity against FLC-resistant Candida albicans CaR assessed as fungal growth inhibition by CLSI based serial microbroth dilution method; format: functional
Candida albicans [6] = experiment: Antifungal activity against FLC-resistant Candida albicans 901 assessed as fungal growth inhibition by CLSI based serial microbroth dilution method; format: functional
Candida albicans [7] = experiment: Antifungal activity against FLC-resistant Candida albicans 904 assessed as fungal growth inhibition by CLSI based serial microbroth dilution method; format: functional
Candida albicans [8] = experiment: Antifungal activity against FLC-resistant Candida albicans 632 assessed as fungal growth inhibition by CLSI based serial microbroth dilution method; format: functional
Candida albicans [9] = experiment: Antifungal activity against FLC-resistant Candida albicans 100 assessed as fungal growth inhibition by CLSI based serial microbroth dilution method; format: functional
Candida albicans [10] = experiment: Antifungal activity against FLC-resistant Candida albicans 103 assessed as fungal growth inhibition by CLSI based serial microbroth dilution method; format: functional
Candida albicans [11] = experiment: Antifungal activity against FLC-resistant Candida albicans 311 assessed as fungal growth inhibition by CLSI based serial microbroth dilution method; format: functional
[12] = target: T1, Lanosterol 14-alpha demethylase (Candida albicans (strain SC5314 / ATCC MYA-2876) (Yeast), UniProt P10613); experiment: Inhibition of CYP51 in Candida albicans ATCC SC5314 assessed as lanosterol level at 0.0075 ug/ml measured after 18 hrs by GC-MS analysis relative to control; parameters: scale not given: the % may be the effect or the level left; conditions: at 0.0075 µg/mL
[13] = target: T1, Lanosterol 14-alpha demethylase; experiment: Inhibition of CYP51 in Candida albicans ATCC SC5314 assessed as ergosterol level at 0.0075 ug/ml measured after 18 hrs by GC-MS analysis (reference value: 96.93 %); parameters: scale not given: the % may be the effect or the level left; conditions: at 0.0075 µg/mL
[14] = target: T1, Lanosterol 14-alpha demethylase; experiment: Inhibition of CYP51 in Candida albicans ATCC SC5314 assessed as eburicol level at 0.0075 ug/ml measured after 18 hrs by GC-MS analysis relative to control; parameters: scale not given: the % may be the effect or the level left; conditions: at 0.0075 µg/mL
[15] = target: T1, Lanosterol 14-alpha demethylase; experiment: Inhibition of CYP51 in Candida albicans ATCC SC5314 assessed as 14alpha-methylergosta-8,24(28)-dien-3beta-6alpha-diol level at 0.0075 ug/ml measured after 18 hrs by GC-MS analysis relative to control; parameters: scale not given: the % may be the effect or the level left; conditions: at 0.0075 µg/mL
[16] = target: T1, Lanosterol 14-alpha demethylase; experiment: Inhibition of CYP51 in Candida albicans ATCC SC5314 assessed as unknown sterol level at 0.0075 ug/ml measured after 18 hrs by GC-MS analysis (reference value: 3.07 %); parameters: scale not given: the % may be the effect or the level left; conditions: at 0.0075 µg/mL
Cell membrane [17] = experiment: Disruption of membrane integrity in Candida albicans ATCC SC5314 assessed as rupture of fungal cells at 16 ug/ml incubated for 48 hrs by transmission electron microscopy; format: subcellular; conditions: dose 16.0 µg/ml
Cell membrane [18] = experiment: Disruption of membrane integrity in Candida albicans ATCC SC5314 assessed as cell membrane damage at 16 ug/ml incubated for 48 hrs by transmission electron microscopy; format: subcellular; conditions: dose 16.0 µg/ml
Cell membrane [19] = experiment: Disruption of membrane integrity in Candida albicans ATCC SC5314 assessed as endogenous substances leakage at 16 ug/ml incubated for 48 hrs by transmission electron microscopy; format: subcellular; conditions: dose 16.0 µg/ml
Candida albicans [20] = experiment: Antibiofilm activity against Candida albicans […] assessed as inhibition of […] metabolism within the biofilm measured after 3 hrs by XTT reduction assay; format: functional
Candida albicans [21] = experiment: Antibiofilm activity against Candida albicans […] assessed as inhibition of […] metabolism within the biofilm measured after 6 hrs by XTT reduction assay; format: functional
Candida albicans [22] = experiment: Antibiofilm activity against Candida albicans […] assessed as inhibition of […] metabolism within the biofilm measured after 18 hrs by XTT reduction assay; format: functional
Candida albicans [23] = experiment: Antibiofilm activity against Candida albicans […] assessed as inhibition of […] metabolism activity in the biofilm measured after 24 hrs by XTT reduction assay; format: functional
Candida albicans [24] = experiment: Antibiofilm activity against Candida albicans […] assessed as inhibition of […] metabolism activity in the biofilm measured after 48 hrs by XTT reduction assay; format: functional
Candida albicans [25] = experiment: Fungicidal activity against Candida albicans CPCC400616 measured after 48 hrs; format: functional
Candida albicans [26] = experiment: Fungicidal activity in Candida albicans CPCC400616 assessed as reduction in viable colony formation at 0.25 ug/ml measured within 16 hrs by time kill assay; format: functional, organism-based; conditions: dose 0.25 µg/ml
A549 = experiment: Cytotoxicity against human A549 cells assessed as reduction in cell viability incubated for 96 hrs by MTT assay; format: functional, cell-based; conditions: A549, 96 h
MCF7 = experiment: Cytotoxicity against human MCF7 cells assessed as reduction in cell viability incubated for 96 hrs by MTT assay; format: functional, cell-based; conditions: MCF7, 96 h
[27] = Cytotoxicity against human HepG2 cells assessed as reduction in cell viability incubated for 96 hrs by MTT assay; format: toxicity, cell-based
RAW264.7 = experiment: Cytotoxicity against mouse RAW264.7 cells assessed as reduction in cell viability incubated for 96 hrs by MTT assay; format: functional, cell-based; conditions: RAW264.7, 96 h
[28] = Stability of the compound in human plasma assessed as parent compound remaining after […] by LC-MS/MS analysis; format: ADME, cell-free; conditions: read-out: Stability
[29] = Stability of the compound in human plasma assessed as parent compound remaining after 120 hrs by LC-MS/MS analysis; format: ADME, cell-free; conditions: read-out: Stability
[30] = Stability of the compound in human plasma assessed as half life measured after […] by LC-MS/MS analysis; format: ADME, cell-free
Cell membrane [31] = experiment: Disruption of membrane integrity in Candida albicans ATCC SC5314 assessed as cell wall damage at 16 ug/ml incubated for 48 hrs by transmission electron microscopy; format: subcellular; conditions: dose 16.0 µg/ml

T1 sequence (P10613 whole entry): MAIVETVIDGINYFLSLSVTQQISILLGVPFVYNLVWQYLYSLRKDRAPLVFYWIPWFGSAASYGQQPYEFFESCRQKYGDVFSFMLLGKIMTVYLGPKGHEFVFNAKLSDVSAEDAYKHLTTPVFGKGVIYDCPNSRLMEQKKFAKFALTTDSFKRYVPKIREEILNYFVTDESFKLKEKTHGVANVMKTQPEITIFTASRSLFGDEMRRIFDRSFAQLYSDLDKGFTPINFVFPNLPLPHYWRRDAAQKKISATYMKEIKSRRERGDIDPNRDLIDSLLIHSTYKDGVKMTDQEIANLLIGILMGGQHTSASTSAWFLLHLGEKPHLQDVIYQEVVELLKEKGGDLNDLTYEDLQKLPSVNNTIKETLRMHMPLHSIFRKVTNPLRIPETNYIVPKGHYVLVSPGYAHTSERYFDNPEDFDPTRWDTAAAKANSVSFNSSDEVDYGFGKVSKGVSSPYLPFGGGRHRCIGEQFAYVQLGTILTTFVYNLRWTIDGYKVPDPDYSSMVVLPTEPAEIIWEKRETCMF

Q: Which IC50 at 96 h [1] does the source give for `Fc1cccc(F)c1CC1(Cn2cncn2)COC(c2ccc(-c3ccsc3)cc2)=N1` (stereo not given) here?
A: > 50 µM

Q: And the MIC (Candida albicans [2])?
A: 0.015 µg/mL (≈ 0.0344 µM)

Q: And the MIC (Candida albicans [3])?
A: 0.015 µg/mL (≈ 0.0344 µM)

Q: And the MIC (Candida tropicalis)?
A: 0.03 µg/mL (≈ 0.0687 µM)

Q: And the MIC (Cryptococcus neoformans)?
A: 0.06 µg/mL (≈ 0.137 µM)

Q: What about the MIC (Candida parapsilosis) of the same compound?
A: 0.125 µg/mL (≈ 0.286 µM)

Q: What about the MIC (Nakaseomyces glabratus) of the same compound?
A: 0.06 µg/mL (≈ 0.137 µM)

Q: What about the MIC (Pichia kudriavzevii) of the same compound?
A: 0.125 µg/mL (≈ 0.286 µM)

Q: What about the MIC (Aspergillus fumigatus) of the same compound?
A: 16 µg/mL (≈ 36.7 µM)

Q: What about the MIC (Candida albicans [4]) of the same compound?
A: 4 µg/mL (≈ 9.16 µM)

Q: What about the MIC (Candida albicans [5]) of the same compound?
A: 0.25 µg/mL (≈ 0.573 µM)

Q: And the MIC (Candida albicans [6])?
A: 0.25 µg/mL (≈ 0.573 µM)

Q: And the MIC (Candida albicans [7])?
A: 1 µg/mL (≈ 2.29 µM)

Q: And the MIC (Candida albicans [8])?
A: 4 µg/mL (≈ 9.16 µM)

Q: And the MIC (Candida albicans [9])?
A: 1 µg/mL (≈ 2.29 µM)

Q: What about the MIC (Candida albicans [10]) of the same compound?
A: 1 µg/mL (≈ 2.29 µM)

Q: What about the MIC (Candida albicans [11]) of the same compound?
A: 2 µg/mL (≈ 4.58 µM)

Q: What about the Activity [12] of the same compound?
A: 31.91%

Q: And the Activity [13]?
A: 4.61%

Q: What about the Activity [14] of the same compound?
A: 24.69%

Q: And the Activity [15]?
A: 28.2%

Q: What about the Activity [16] of the same compound?
A: 1.92%

Q: And the Activity (Cell membrane [17])?
A: Active

Q: And the Activity (Cell membrane [18])?
A: Active

Q: What about the Activity (Cell membrane [19]) of the same compound?
A: Active

Q: What about the MIC50 (Candida albicans [20]) of the same compound?
A: 0.125 µg/mL (≈ 0.286 µM)

Q: What about the MIC50 (Candida albicans [21]) of the same compound?
A: 0.125 µg/mL (≈ 0.286 µM)

Q: And the MIC50 (Candida albicans [22])?
A: 2 µg/mL (≈ 4.58 µM)

Q: And the MIC50 (Candida albicans [23])?
A: 16 µg/mL (≈ 36.7 µM)

Q: And the MIC50 (Candida albicans [24])?
A: > 64 µg/mL

Q: And the MFC (Candida albicans [25])?
A: 0.25 µg/mL (≈ 0.573 µM)

Q: And the Activity (Candida albicans [26])?
A: Active

Q: And the IC50 (A549)?
A: > 50 µM

Q: What about the IC50 (MCF7) of the same compound?
A: > 50 µM

Q: And the IC50 at 96 h [27]?
A: 39.3 µM

Q: What about the IC50 (RAW264.7) of the same compound?
A: 32.5 µM

Q: What about the remaining [28] of the same compound?
A: 96.8%

Q: What about the remaining at 120 h [29] of the same compound?
A: 98.2%

Q: And the half-life [30]?
A: > 4.8 h

Q: What about the Activity (Cell membrane [31]) of the same compound?
A: Active
